Data taken from patent US12077503B2, “Substituted cyclic amides and their use as herbicides” (FMC CORPORATION, priority 2015, dated 2024).

Assays:
Assay type in all cases: in vivo
Kochia (Kochia scoparia) [1] = experiment: Test A preemergence; settings: Bassia scoparia, pre-emergence, 240 h, 0 to 100 scale where 0 is no effect and 100 is complete control, read-out: Kochia plant response rating; for pest or weed control at 31 g/ha: 31 g ai/ha, Preemergence; for pest or weed control at 125 g/ha: 125 g ai/ha, preemergence, approx. 10 d
Method in brief: (§1)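 Compounds were formulated in a non-phytotoxic solvent mixture with surfactant and applied as a preemergence directed soil spray after seeding, or sprayed postemergence over plants 2 to 10 cm tall at the one- to two-leaf stage. Evaluation after about 10 d compared treated with untreated controls, using a scale from 0 (no effect) to 100 (complete control).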

[2] = tested on: barnyardgrass (Echinochloa crus-galli); experiment: Test A preemergence; settings: Echinochloa crus-galli, pre-emergence, 240 h, 0 to 100 scale where 0 is no effect and 100 is complete control, read-out: Barnyardgrass plant response rating; for pest or weed control at 31 g/ha: 31 g ai/ha, Preemergence; for pest or weed control at 125 g/ha: 125 g ai/ha, preemergence, approx. 10 d
Method in brief: as §1

[3] = tested on: giant foxtail (Setaria faberii); experiment: Test A preemergence; settings: Setaria faberi, pre-emergence, 240 h, 0 to 100 scale where 0 is no effect and 100 is complete control, read-out: Foxtail, Giant plant response rating; for pest or weed control at 31 g/ha: 31 g ai/ha, Preemergence; for pest or weed control at 125 g/ha: 125 g ai/ha, preemergence, approx. 10 d
Method in brief: as §1

[4] = tested on: pigweed (Amaranthus retroflexus); experiment: Test A preemergence; settings: Amaranthus retroflexus, pre-emergence, 240 h, 0 to 100 scale where 0 is no effect and 100 is complete control, read-out: Pigweed plant response rating; for pest or weed control at 31 g/ha: 31 g ai/ha, Preemergence; for pest or weed control at 125 g/ha: 125 g ai/ha, preemergence, approx. 10 d
[5] = tested on: ragweed (common ragweed, Ambrosia elatior); experiment: Test A preemergence; settings: Ambrosia artemisiifolia, pre-emergence, 240 h, 0 to 100 scale where 0 is no effect and 100 is complete control, read-out: Ragweed plant response rating; for pest or weed control at 31 g/ha: 31 g ai/ha, Preemergence; for pest or weed control at 125 g/ha: 125 g ai/ha, preemergence, approx. 10 d
Method in brief: as §1

[6] = tested on: ryegrass, Italian (Italian ryegrass, Lolium multiflorum); experiment: Test A preemergence; settings: Lolium multiflorum, pre-emergence, 240 h, 0 to 100 scale where 0 is no effect and 100 is complete control, read-out: Ryegrass, Italian plant response rating; for pest or weed control at 31 g/ha: 31 g ai/ha, Preemergence; for pest or weed control at 125 g/ha: 125 g ai/ha, preemergence, approx. 10 d
Method in brief: as §1

[7] = tested on: Galium (catchweed bedstraw, Galium aparine); experiment: Test A postemergence; settings: Galium, post-emergence, 240 h; for pest or weed control at 125 g/ha: 125 g ai/ha, postemergence, visual injury on 0 to 100 scale (0 no effect, 100 complete control), approx. 10 d, read-out: Galium plant response rating; for pest or weed control at 31 g/ha: Postemergence, 31 g ai/ha, visual injury after approx. 10 d, 0 to 100 scale, 0 no effect, 100 complete control, read-out: Plant response rating, Galium
Method in brief: as §1

Kochia (Kochia scoparia) [8] = experiment: Test A postemergence; settings: Bassia scoparia, post-emergence, 240 h; for pest or weed control at 125 g/ha: 125 g ai/ha, postemergence, visual injury on 0 to 100 scale (0 no effect, 100 complete control), approx. 10 d, read-out: Kochia plant response rating; for pest or weed control at 31 g/ha: Postemergence, 31 g ai/ha, visual injury after approx. 10 d, 0 to 100 scale, 0 no effect, 100 complete control, read-out: Plant response rating, Kochia
Method in brief: as §1

[9] = tested on: barnyardgrass (Echinochloa crus-galli); experiment: Test A postemergence; settings: Echinochloa crus-galli, post-emergence, 240 h; for pest or weed control at 125 g/ha: 125 g ai/ha, postemergence, visual injury on 0 to 100 scale (0 no effect, 100 complete control), approx. 10 d, read-out: Barnyardgrass plant response rating; for pest or weed control at 31 g/ha: Postemergence, 31 g ai/ha, visual injury after approx. 10 d, 0 to 100 scale, 0 no effect, 100 complete control, read-out: Plant response rating, Barnyardgrass
Method in brief: as §1

[10] = tested on: blackgrass (Alopecurus myosuroides); experiment: Test A postemergence; settings: Alopecurus myosuroides, post-emergence, 240 h; for pest or weed control at 125 g/ha: 125 g ai/ha, postemergence, visual injury on 0 to 100 scale (0 no effect, 100 complete control), approx. 10 d, read-out: Blackgrass plant response rating; for pest or weed control at 31 g/ha: Postemergence, 31 g ai/ha, visual injury after approx. 10 d, 0 to 100 scale, 0 no effect, 100 complete control, read-out: Plant response rating, Blackgrass
Method in brief: as §1

corn (Zea mays) = experiment: Test A postemergence; settings: Zea mays, post-emergence, 240 h; for plant injury at 125 g/ha: 125 g ai/ha, postemergence, visual injury on 0 to 100 scale (0 no effect, 100 complete control), approx. 10 d, read-out: Corn plant response rating; for Corn plant response rating (crop injury, 0 = no effect, 100 = complete kill) at 31 g/ha: Postemergence, 31 g ai/ha, visual injury after approx. 10 d, 0 to 100 scale, 100 complete control
Method in brief: as §1

[11] = tested on: giant foxtail (Setaria faberii); experiment: Test A postemergence; settings: Setaria faberi, post-emergence, 240 h; for pest or weed control at 125 g/ha: 125 g ai/ha, postemergence, visual injury on 0 to 100 scale (0 no effect, 100 complete control), approx. 10 d, read-out: Foxtail, Giant plant response rating; for pest or weed control at 31 g/ha: Postemergence, 31 g ai/ha, visual injury after approx. 10 d, 0 to 100 scale, 0 no effect, 100 complete control, read-out: Plant response rating, Foxtail, Giant
Method in brief: as §1

[12] = tested on: pigweed (Amaranthus retroflexus); experiment: Test A postemergence; settings: Amaranthus retroflexus, post-emergence, 240 h; for pest or weed control at 125 g/ha: 125 g ai/ha, postemergence, visual injury on 0 to 100 scale (0 no effect, 100 complete control), approx. 10 d, read-out: Pigweed plant response rating; for pest or weed control at 31 g/ha: Postemergence, 31 g ai/ha, visual injury after approx. 10 d, 0 to 100 scale, 0 no effect, 100 complete control, read-out: Plant response rating, Pigweed
Method in brief: as §1

[13] = tested on: ragweed (common ragweed, Ambrosia elatior); experiment: Test A postemergence; settings: Ambrosia artemisiifolia, post-emergence, 240 h; for pest or weed control at 125 g/ha: 125 g ai/ha, postemergence, visual injury on 0 to 100 scale (0 no effect, 100 complete control), approx. 10 d, read-out: Ragweed plant response rating; for pest or weed control at 31 g/ha: Postemergence, 31 g ai/ha, visual injury after approx. 10 d, 0 to 100 scale, 0 no effect, 100 complete control, read-out: Plant response rating, Ragweed
Method in brief: as §1

[14] = tested on: ryegrass, Italian (Italian ryegrass, Lolium multiflorum); experiment: Test A postemergence; settings: Lolium multiflorum, post-emergence, 240 h; for pest or weed control at 125 g/ha: 125 g ai/ha, postemergence, visual injury on 0 to 100 scale (0 no effect, 100 complete control), approx. 10 d, read-out: Ryegrass, Italian plant response rating; for pest or weed control at 31 g/ha: Postemergence, 31 g ai/ha, visual injury after approx. 10 d, 0 to 100 scale, 0 no effect, 100 complete control, read-out: Plant response rating, Ryegrass, Italian
Method in brief: as §1

[15] = tested on: wheat (Triticum aestivum); experiment: Test A postemergence; settings: Triticum aestivum, post-emergence, 240 h; for plant injury at 125 g/ha: 125 g ai/ha, postemergence, visual injury on 0 to 100 scale (0 no effect, 100 complete control), approx. 10 d, read-out: Wheat plant response rating; for plant injury at 31 g/ha: Postemergence, 31 g ai/ha, visual injury after approx. 10 d, 0 to 100 scale, 0 no effect, 100 complete control, read-out: Plant response rating, Wheat
Method in brief: as §1

[16] = tested on: barnyardgrass (Echinochloa crus-galli); experiment: Test B flooded paddy test; settings: Echinochloa crus-galli, 250 g ai/ha, Flood; 0 to 100 scale where 0 is no effect and 100 is complete control; read-out: Barnyardgrass plant response rating
Method in brief: (§2)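 Evaluation by eye, against controls, occurred 13–15 d post-treatment in a greenhouse, using a 0 (no effect) to 100 (complete control) scale. Application was into the paddy water, 3 cm deep over the soil, on 2-leaf plants.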

[17] = tested on: ducksalad (Heteranthera limosa); experiment: Test B flooded paddy test; settings: Heteranthera limosa, 250 g ai/ha, Flood; 0 to 100 scale where 0 is no effect and 100 is complete control; read-out: Ducksalad plant response rating
Method in brief: as §2

rice (Oryra sativa) = experiment: Test B flooded paddy test; settings: Oryza sativa, 250 g ai/ha, Flood; 0 to 100 scale where 0 is no effect and 100 is complete control; read-out: Rice plant response rating
Method in brief: as §2

[18] = tested on: sedge, umbrella (small-flower umbrella sedge, Cyperus difformis); experiment: Test B flooded paddy test; settings: Cyperus difformis, 250 g ai/ha, Flood; 0 to 100 scale where 0 is no effect and 100 is complete control; read-out: Sedge, Umbrella plant response rating
Method in brief: as §2

Structure (SMILES)	pest or weed control at 31 g/ha (Kochia (Kochia scoparia) [1])	pest or weed control at 125 g/ha (Kochia (Kochia scoparia) [1])	pest or weed control at 31 g/ha [2]	pest or weed control at 125 g/ha [2]	pest or weed control at 31 g/ha [3]	pest or weed control at 125 g/ha [3]	pest or weed control at 31 g/ha [4]	pest or weed control at 125 g/ha [4]	pest or weed control at 31 g/ha [5]	pest or weed control at 125 g/ha [5]	pest or weed control at 31 g/ha [6]	pest or weed control at 125 g/ha [6]	pest or weed control at 125 g/ha [7]	pest or weed control at 31 g/ha [7]	pest or weed control at 125 g/ha (Kochia (Kochia scoparia) [8])	pest or weed control at 31 g/ha (Kochia (Kochia scoparia) [8])	pest or weed control at 125 g/ha [9]	pest or weed control at 31 g/ha [9]	pest or weed control at 125 g/ha [10]	pest or weed control at 31 g/ha [10]	further results
CON1CC[C@H](c2ccc(C(F)(F)F)cc2)[C@@H](C(=O)Nc2ccc(F)c(F)c2F)C1=O [Compound 1107]	0%	0%	0%	0%	0%	0%	0%	0%	0%	0%	0%	0%	0%	0%	0%	0%	0%	0%	0%	0%	plant injury at 125 g/ha (corn (Zea mays)): 0%; Corn plant response rating (crop injury, 0 = no effect, 100 = complete kill) at 31 g/ha (corn (Zea mays)): 0%; pest or weed control at 125 g/ha [11]: 0%; pest or weed control at 31 g/ha [11]: 0%; pest or weed control at 125 g/ha [12]: 0%; pest or weed control at 31 g/ha [12]: 0%; pest or weed control at 125 g/ha [13]: 0%; pest or weed control at 31 g/ha [13]: 0%; pest or weed control at 125 g/ha [14]: 0%; pest or weed control at 31 g/ha [14]: 0%; plant injury at 125 g/ha [15]: 0%; plant injury at 31 g/ha [15]: 0%; pest or weed control at 250 g/ha [16]: 0%; pest or weed control at 250 g/ha [17]: 80%; pest or weed control at 250 g/ha (rice (Oryra sativa)): 0%; pest or weed control at 250 g/ha [18]: 0%
C=C(C)c1cccc([C@H]2CN(C)C(=O)[C@@H]2C(=O)Nc2cccc(F)c2F)c1 [Compound 1085]	0%	0%	0%	90%	90%	100%	0%	0%	0%	0%	0%	0%	60%	40%	20%	0%	90%	40%	20%	0%	plant injury at 125 g/ha (corn (Zea mays)): 20%; Corn plant response rating (crop injury, 0 = no effect, 100 = complete kill) at 31 g/ha (corn (Zea mays)): 20%; pest or weed control at 125 g/ha [11]: 60%; pest or weed control at 31 g/ha [11]: 0%; pest or weed control at 125 g/ha [12]: 20%; pest or weed control at 31 g/ha [12]: 0%; pest or weed control at 125 g/ha [13]: 0%; pest or weed control at 31 g/ha [13]: 0%; pest or weed control at 125 g/ha [14]: 20%; pest or weed control at 31 g/ha [14]: 0%; plant injury at 125 g/ha [15]: 20%; plant injury at 31 g/ha [15]: 0%; pest or weed control at 250 g/ha [16]: 60%; pest or weed control at 250 g/ha [17]: 30%; pest or weed control at 250 g/ha (rice (Oryra sativa)): 25%; pest or weed control at 250 g/ha [18]: 0%
